Assay results reported in patent publication US20100298402A1, “STILBENE DERIVATIVES AS PSTAT3/IL-6 INHIBITORS” (ORCHID RESEARCH LABORATORIES LIMITED, priority 2007, published 2010).

Legend:
Assay type in all cases: cell-based
[1] = system: pSTAT3 in HEPG2 (liver cancer) cells induced by IL-6; assay: Inhibition of pSTAT3 (IL-6 induced phosphorylation of STAT3, Phospho-STAT3 (Tyr705) Sandwich ELISA); details: Homo sapiens, 4 hours compound, then IL-6 (10 ng/mL) 30 minutes
Description: The experimental drugs were tested for their effect on phosphorylation of STAT3 in HEPG2 (liver cancer) cells induced by IL-6. Test compounds were dissolved in DMSO at 20 mM and diluted in a growth medium at 2× strength. Final DMSO concentration was less than 0.5%. 100 μL of cell suspension (10×10^4 cells/mL) was added to the wells of 96 well plates and allowed to adhere for 24 hours in a CO2 incubator at 37° C. Following overnight incubation, the culture medium was replaced with 100 μL of fresh growth medium and 100 μL of test compound (s), standard (Curcumin) and growth medium (untreated) wells. The plates were incubated in CO2 incubator at 37° C. for 4 hours. After compound treatment, IL-6 (10 ng/mL) was added to the wells and incubated for 30 minutes to induce pSTAT3.
At the end of the 30 minutes incubation, cells were rinsed with ice-cold PBS and lysed with 1× Cell lysis buffer containing 1 mM PMSF (provided in the kit) on ice for 5 minutes. The cells were scraped off and transferred to an appropriate tube, sonicated on ice and centrifuged for 10 minutes at 4° C. The supernatant (cell lysate) was collected and stored at −80° C. and the levels of pSTAT3 were measured in the cell lysate by Path Scan Phospho-STAT3 (Tyr705) Sandwich ELISA kit (Cell Signaling, Cat No. 7300) by following the kit instructions.

[2] = system: IL-6 in supernatant of NCIH 460 cells; assay: Measuring IL-6 in culture supernatants (ELISA); details: Homo sapiens, NCI-H460, 5 hours incubation
[3] = system: HCT 116 (colon), NCIH460 (lung) and U251 (glioma) cell lines; assay: Anti-cancer screen (MTT growth inhibition, 48 hours); details: Homo sapiens; HCT 116, NCIH460 and U251 cell lines; MTT after 48 hours of incubation;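 also: mean GI50 across the three cell lines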
Description: The experimental drugs were screened for anti-cancer activity in three cell lines using five concentrations for each compound. The cell lines—HCT 116 (colon), NCIH460 (lung) and U251 (glioma) were maintained in DMEM containing 10% fetal bovine serum. 96-well microtiter plates are inoculated with cells in 100 μL of cell suspension (5×10^4 cells/mL) for 24 hours at 37° C., 5% CO2, 95% air and 100% relative humidity. A separate plate with these cell lines is also inoculated to determine cell viability before the addition of the compounds (T0)
Following 24-hour incubation, test compounds were added to the 96 well plates. Each plate contains one of the above cell lines and the following samples in triplicate: five different dilutions (0.01, 0.1, 1, 10 and 100 μM) of four test compounds, appropriate dilutions of a cytotoxic standard and growth medium (untreated) wells. Test compounds were dissolved in DMSO to prepare 20 mM stock solutions on the day of drug addition and serial dilutions were carried out in complete growth medium at 2× strength, such that 100 μL added to the wells gave final concentrations (0.01, 0.1, 1, 10 and 100 μM) in the well. SAHA was used as the standard drug in these experiments.
For T0 measurement, 24 hours after seeding the cells, 20 μL of 3-(4,5-dimethyl-2-thiazolyl)-2,5-diphenyl-2H-tetrazolium (MTT) solution per well was added to the ‘T0’ plate and incubated for 3 hours at 37° C. in a CO2 incubator. The plate containing cells and test compounds was treated similarly after 48 hours of incubation. After 3 hours of MTT addition, well contents were aspirated carefully followed by addition of 150 μL DMSO per well. Plates were agitated to ensure dissolution of the formazan crystals in DMSO and absorbance was read at 570 nm (A570).
Percent growth (PG) is calculated relative to the control and zero measurement wells (T0) as follows:
PG values are plotted against drug concentration to derive the following: GI50 is the concentration required to decrease PG by 50% vs control; TGI is the concentration required to decrease PG by 100% vs control and LC50 is the concentration required to decrease PG by 50% vs T0. (Mosmann T. Rapid colorimetric assay for cellular growth and survival: application to proliferation and cytotoxicity assays. (J. Immunol. Methods. 1983, 65 (1-2), 55-63; Anne Monks et al); feasibility of high-flux anticancer drug screen using a diverse panel of cultured human tumor cell lines”. (JNCI, Vol. 83, No. 11, 1991). Results for growth inhibition of synthesized compounds are given in Table-1.

Row | SMILES | inhibition at 10 µM [1] | inhibition at 10 µM [2] | GI50 [3]
1 | COC(=O)/C(=C/c1ccc(F)c(C)c1)c1ccc(OCC(O)CNCc2ccc(OC)cc2OC)cc1 (centres unmarked) [Example 1, 2-{4-[3-(2,4-dimethoxybenzylamino)-2-hydroxypropoxy]phenyl}-3-(4-fluoro-3-methylphenyl)acrylic acid methyl ester] | 22.2% |  | 
2 | COC(=O)/C(=C/c1ccc(F)cc1)c1ccc(OCC(O)CNCCOc2ccccc2OC)cc1 (centres unmarked) [Example 26, 2-{4-[3-(2-Methoxyphenoxyethylamino)-2-hydroxypropoxy]phenyl}-3-(4-fluorophenyl)acrylic acid methyl ester] |  | 36.2% | 12100 nM
3 | COC(=O)/C(=C/c1ccc(Cl)cc1)c1ccc(OCC(O)CNCc2ccccc2)cc1 (centres unmarked) [Example 27, 2-{4-[3-(Benzylamino)-2-hydroxypropoxy]phenyl}-3-(4-chlorophenyl)acrylic acid methyl ester] |  | 32.7% | 6500 nM
4 | COC(=O)/C(=C/c1ccc(SC)cc1)c1ccc(OCC(O)CNCc2ccc(OC)cc2OC)cc1 (centres unmarked) [Example 28, 2-{4-[3-(2,4-Dimethoxybenzylamino)-2-hydroxypropoxy]phenyl}-3-(4-(methylthio)phenyl)acrylic acid methyl ester] |  | 78.5% | 1300 nM
5 | COC(=O)/C(=C/c1ccc(OCC(O)CNCCOc2ccccc2OC)cc1)c1ccc(OC)cc1 (centres unmarked) [Example 29, 3-{4-[3-(2-Methoxyphenoxyethylamino)-2-hydroxypropoxy]phenyl}-2-(4-(methoxy)phenyl)acrylic acid methyl ester] |  | 64.2% | 1900 nM
6 | COC(=O)/C(=C/c1ccc(OCC(O)CNCc2ccccc2)cc1)c1ccc(OC)cc1 (centres unmarked) [Example 30, 3-{4-[3-(Benzylamino)-2-hydroxypropoxy]phenyl}-2-(4-(methoxy)phenyl)acrylic acid methyl ester] |  | 27.8% | 1400 nM
7 | COC(=O)/C(=C/c1ccc(OCC(O)CNCc2ccccc2)cc1)c1cccs1 (centres unmarked) [Example 31, 3-{4-[3-(Benzylamino)-2-hydroxypropoxy]phenyl}-2-(thiophen-2-yl)acrylic acid methyl ester] |  | 2.1% | 900 nM
8 | COC(=O)/C(=C/c1ccc(OC)cc1OC)c1ccc(OCC(O)CNCc2ccc(OC)cc2OC)cc1 (centres unmarked) [Example 32, 2-{4-[3-(2,4-Dimethoxybenzylamino)-2-hydroxypropoxy]phenyl}-3-(2,4-dimethoxyphenyl)acrylic acid methyl ester] |  | 70.5% | 600 nM
9 | COC(=O)/C(=C/c1ccc(OC)cc1OC)c1ccc(OCC(O)CNCCOc2ccccc2OC)cc1 (centres unmarked) [Example 33, 2-{4-[3-(2-Methoxyphenoxyethylamino)-2-hydroxypropoxy]phenyl}-3-(2,4-dimethoxyphenyl)acrylic acid methyl ester] |  | 61.2% | 2600 nM
10 | COC(=O)/C(=C/c1ccc(OCC(O)CNCCOc2ccccc2OC)cc1)c1cccs1 (centres unmarked) [Example 34, 3-{4-[3-(2-Methoxyphenoxyethylamino)-2-hydroxypropoxy]phenyl}-2-(thiophen-2-yl)acrylic acid methyl ester] |  | 41.9% | 18700 nM
11 | COC(=O)/C(=C/c1ccc(OCC(O)CNCc2ccccc2)cc1)c1ccc(F)cc1 (centres unmarked) [Example 36, 3-{4-[3-(Benzylamino)-2-hydroxypropoxy]phenyl}-2-(4-fluorophenyl)acrylic acid methyl ester] |  | 27.9% | 12000 nM
12 | COC(=O)/C(=C/c1ccc(OCC(O)CNCc2ccccc2)cc1)c1ccc(C)cc1 (centres unmarked) [Example 39, 3-{4-[3-(Benzylamino)-2-hydroxypropoxy]phenyl}-2-(4-methylphenyl)acrylic acid methyl ester] |  | 41.8% | 6300 nM
13 | COC(=O)/C(=C/c1ccc(OCC(O)CNCCOc2ccccc2OC)cc1)c1ccc(F)cc1 (centres unmarked) [Example 41, 3-{4-[3-(2-Methoxyphenoxyethylamino)-2-hydroxypropoxy]phenyl}-2-(4-fluorophenyl)acrylic acid methyl ester] |  | 68% | 11400 nM
14 | COC(=O)/C(=C/c1ccc(OCC(O)CNCCOc2ccccc2OC)cc1)c1ccccc1 (centres unmarked) [Example 42, 3-{4-[3-(2-Methoxyphenoxyethylamino)-2-hydroxypropoxy]phenyl}-2-phenylacrylic acid methyl ester] |  | 13% | 12000 nM
15 | COC(=O)/C(=C/c1ccc(OCC(O)CNCc2ccccc2)cc1)c1ccccc1 (centres unmarked) [Example 44, 3-{4-[3-(Benzylamino)-2-hydroxypropoxy]phenyl}-2-phenylacrylic acid methyl ester] |  | 7.7% | 2100 nM
16 | COC(=O)/C(=C/c1ccccc1OCC(O)CNCc1ccc(OC)cc1OC)c1ccc(OC)cc1 (centres unmarked) [Example 45, 3-{2-[3-(2,4-Dimethoxybenzylamino)-2-hydroxypropoxy]phenyl}-2-(4-methoxyphenyl)acrylic acid methyl ester] |  | 56% | 1200 nM
17 | COC(=O)/C(=C/c1ccccc1OCC(O)CNCCOc1ccccc1OC)c1ccc(OC)cc1 (centres unmarked) [Example 46, 3-{2-[3-(2-Methoxyphenoxyethylamino)-2-hydroxypropoxy]phenyl}-2-(4-methoxyphenyl)acrylic acid methyl ester] |  | 48% | 1600 nM
18 | COC(=O)/C(=C/c1ccc(OCC(O)CNCc2ccc(OC)cc2OC)cc1)c1cccc(Cl)c1 (centres unmarked) [Example 47, 3-{4-[3-(2,4-Dimethoxybenzylamino)-2-hydroxypropoxy]phenyl}-2-(3-chlorophenyl)acrylic acid methyl ester] |  | 59% | 1300 nM
19 | COC(=O)/C(=C/c1ccc(OCC(O)CNCCOc2ccccc2OC)cc1)c1cccc(Cl)c1 (centres unmarked) [Example 48, 3-{4-[3-(2-Methoxyphenoxyethylamino)-2-hydroxypropoxy]phenyl}-2-(3-chlorophenyl)acrylic acid methyl ester] |  | 9% | 1600 nM
20 | COC(=O)/C(=C/c1ccc(OCC(O)CNCCOc2ccccc2OC)cc1)c1cccc(F)c1 (centres unmarked) [Example 51, 3-{4-[3-(2-Methoxyphenoxyethylamino)-2-hydroxypropoxy]phenyl}-2-(3-fluorophenyl)acrylic acid methyl ester] | 49.9% |  | 
21 | COC(=O)/C(=C/c1ccc(OCC(O)CNCc2ccc(OC)cc2OC)cc1)c1ccccc1F (centres unmarked) [Example 53, 3-{4-[3-(2,4-Dimethoxybenzylamino)-2-hydroxypropoxy]phenyl}-2-(2-fluorophenyl)acrylic acid methyl ester] | 61.4% |  | 
22 | COC(=O)/C(=C/c1ccc(C)s1)c1ccc(OCC(O)CNCc2ccc(OC)cc2OC)cc1 (centres unmarked) [Example 56, 2-{4-[3-(2,4-Dimethoxybenzylamino)-2-hydroxypropoxy]phenyl}-3-(5-methylthiophen-2-yl)acrylic acid methyl ester] | 56.2% |  | 
23 | COC(=O)/C(=C/c1ccc(C)s1)c1ccc(OCC(O)CNCCOc2ccccc2OC)cc1 (centres unmarked) [Example 57, 2-{4-[3-(2-Methoxyphenoxyethylamino)-2-hydroxypropoxy]phenyl}-3-(5-methylthiophen-2-yl)acrylic acid methyl ester] | 66.5% |  | 
